Laboratory results published in patent publication US8956999B2, “Herbicides” (Syngenta Limited, priority 2007, dated 2015).

Legend:
Format in all cases: in vivo
[1] = system: Echinochloa crus-galli (ECHCG); experiment: Example A post-emergence herbicidal test, glasshouse; settings: rate 125 g/ha, evaluated 14 or 15 days later, 100=total damage to plant, 0=no damage to plant
Description: (§1) Seeds of a variety of test species were sown in standard soil in pots. After cultivation for one day (pre-emergence) or after 10 days cultivation (post-emergence) under controlled conditions in a glasshouse, the plants were sprayed with an aqueous spray solution derived from the formulation of the technical active ingredient in 0.6 ml acetone and 45 ml formulation solution containing 10.6% Emulsogen EL (Registry number 61791-12-6), 42.2% N-methylpyrrolidone, 42.2% dipropylene glycol monomethyl ether (Registry number 34590-94-8) and 0.2% X-77 (Registry number 11097-66-8). The test plants were then grown in a greenhouse under optimum conditions until, 14 or 15 days later for post-emergence and 20 days for pre-emergence, the test was evaluated (100=total damage to plant; 0=no damage to plant). Test Plants: Alopecurus myosuroides (ALOMY), Avena fatua (AVEFA), Lolium perenne (LOLPE), Setaria faberi (SETFA), Digitaria sanguinalis (DIGSA), Echinochloa crus-galli (ECHCG)

Setaria faberi (SETFA) [2] = experiment: as above; settings: rate 125 g/ha, evaluated 14 or 15 days later, 100=total damage to plant, 0=no damage to plant
Description: as §1

Lolium perenne (LOLPE) [3] = experiment: as above; settings: rate 125 g/ha, evaluated 14 or 15 days later, 100=total damage to plant, 0=no damage to plant
Description: as §1

[4] = system: Digitaria sanguinalis (DIGSA); experiment: as above; settings: rate 125 g/ha, evaluated 14 or 15 days later, 100=total damage to plant, 0=no damage to plant
Description: as §1

Avena fatua (AVEFA) [5] = experiment: as above; settings: rate 125 g/ha, evaluated 14 or 15 days later, 100=total damage to plant, 0=no damage to plant
Description: as §1

[6] = system: Alopecurus myosuroides (ALOMY); experiment: as above; settings: rate 125 g/ha, evaluated 14 or 15 days later, 100=total damage to plant, 0=no damage to plant
Description: as §1

[7] = system: Echinochloa crus-galli (ECHCG); experiment: Example A pre-emergence herbicidal test, glasshouse; settings: rate 250 g/ha, evaluated after 20 days, 100=total damage to plant, 0=no damage to plant
Description: as §1

Setaria faberi (SETFA) [8] = experiment: as above; settings: rate 250 g/ha, evaluated after 20 days, 100=total damage to plant, 0=no damage to plant
Description: as §1

Lolium perenne (LOLPE) [9] = experiment: as above; settings: rate 250 g/ha, evaluated after 20 days, 100=total damage to plant, 0=no damage to plant
Description: as §1

[10] = system: Digitaria sanguinalis (DIGSA); experiment: as above; settings: rate 250 g/ha, evaluated after 20 days, 100=total damage to plant, 0=no damage to plant
Description: as §1

Avena fatua (AVEFA) [11] = experiment: as above; settings: rate 250 g/ha, evaluated after 20 days, 100=total damage to plant, 0=no damage to plant
Description: as §1

[12] = system: Alopecurus myosuroides (ALOMY); experiment: as above; settings: rate 250 g/ha, evaluated after 20 days, 100=total damage to plant, 0=no damage to plant
Description: as §1

[13] = system: Echinochloa crus-galli (ECHCG); experiment: Example B post-emergence herbicidal test, glasshouse; settings: 312 h, rate 1000 g/ha, evaluated after 13 days, read-out: Post-Emergence Activity ECHCG (100=total damage to plant; 0=no damage to plant)
Summary of the method: (§2)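 Test species were grown from seed in standard soil and sprayed with the formulated compound either pre-emergence (1 day after sowing) or post-emergence (8 days). Plants then remained under controlled glasshouse conditions for 13 days before phytotoxicity was rated from 0 (no damage) to 100 (total damage).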

Setaria faberi (SETFA) [14] = experiment: as above; settings: 312 h, rate 1000 g/ha, evaluated after 13 days, read-out: Post-Emergence Activity SETFA (100=total damage to plant; 0=no damage to plant)
Summary of the method: as §2

[15] = system: Amaranthus retoflexus (AMARE); experiment: as above; settings: Amaranthus retroflexus, 312 h, rate 1000 g/ha, evaluated after 13 days, read-out: Post-Emergence Activity AMARE (100=total damage to plant; 0=no damage to plant)
Summary of the method: as §2

Solanum nigrum (SOLNI) = experiment: as above; settings: 312 h, rate 1000 g/ha, evaluated after 13 days, read-out: Post-Emergence Activity SOLNI (100=total damage to plant; 0=no damage to plant)
Summary of the method: as §2

Avena fatua (AVEFA) [16] = experiment: as above; settings: 312 h, rate 1000 g/ha, evaluated after 13 days, read-out: Post-Emergence Activity AVEFA (100=total damage to plant; 0=no damage to plant)
Summary of the method: as §2

[17] = system: Alopecurus myosuroides (ALOMY); experiment: as above; settings: 312 h, rate 1000 g/ha, evaluated after 13 days, read-out: Post-Emergence Activity ALOMY (100=total damage to plant; 0=no damage to plant)
Summary of the method: as §2

| SMILES | Post-Emergence Activity ECHCG [1] | Post-Emergence Activity SETFA (Setaria faberi (SETFA) [2]) | Post-Emergence Activity LOLPE (Lolium perenne (LOLPE) [3]) | Post-Emergence Activity DIGSA [4] | Post-Emergence Activity AVEFA (Avena fatua (AVEFA) [5]) | Post-Emergence Activity ALOMY [6] | Pre-Emergence Activity ECHCG [7] | Pre-Emergence Activity SETFA (Setaria faberi (SETFA) [8]) | Pre-Emergence Activity LOLPE (Lolium perenne (LOLPE) [9]) | Pre-Emergence Activity DIGSA [10] | Pre-Emergence Activity AVEFA (Avena fatua (AVEFA) [11]) | Pre-Emergence Activity ALOMY [12] | pest or weed control at 1000 g/ha [13] | pest or weed control at 1000 g/ha (Setaria faberi (SETFA) [14]) | pest or weed control at 1000 g/ha [15] | pest or weed control at 1000 g/ha (Solanum nigrum (SOLNI)) | pest or weed control at 1000 g/ha (Avena fatua (AVEFA) [16]) | pest or weed control at 1000 g/ha [17] |
| --- | --- | --- | --- | --- | --- | --- | --- | --- | --- | --- | --- | --- | --- | --- | --- | --- | --- | --- |
| Cc1sc(-c2ccc(Cl)cc2)cc1C1C(=O)C(C)(C)OC(C)(C)C1=O [Compound T12] | 100 | 80 | 70 | 90 | 70 | 80 | 40 | 0 | 0 | 20 | 0 | 30 |  |  |  |  |  |  |
| CCc1sc(-c2ccc(Cl)cc2)nc1C1C(=O)C(C)(C)OC(C)(C)C1=O [Compound T11, 4-[2-(4-chlorophenyl)-5-ethylthiazol-4-yl]-2,2,6,6-tetramethylpyran-3,5-dione] | 100 | 100 | 60 | 100 | 80 | 90 | 100 | 100 | 100 | 100 | 100 | 100 |  |  |  |  |  |  |
| Cc1[se]c(-c2ccc(Cl)cc2)nc1C1C(=O)C(C)(C)OC(C)(C)C1=O [Compound T16, 5-[2-(4-chlorophenyl)-5-methylselenazol-4-yl]-2,2,6,6-tetramethylpyran-3,5-dione] | 100 | 90 | 60 | 90 | 70 | 70 | 60 | 0 | 100 | 100 | 50 | 90 |  |  |  |  |  |  |
| Cc1sc(-c2ccc(Cl)cc2)nc1C1C(=O)C(C)(C)OC(C)(C)C1=O [Compound T13] | 100 | 100 | 70 | 100 | 80 | 90 | 100 | 100 | 100 | 100 | 50 | 100 |  |  |  |  |  |  |
| CCc1sc(-c2ccc(Cl)cc2)nc1C1C(=O)C(C)(C)C(=O)C(C)(C)C1=O [Compound T6] | 70 | 70 | 30 | 70 | 60 | 70 | 50 | 60 | 80 | 70 | 20 | 50 | 90% | 100% | 0% | 0% | 90% | 90% |
